Consider one molecule from patent US11142524B2, “Substituted-3H-imidazo[4,5-c]pyridine and 1H-pyrrolo[2,3-c]pyridine series of novel Ectonucleotide Pyrophosphatase/Phosphodiesterase-1 (ENPP1) and stimulator for interferon genes (STING) modulators as cancer immunotherapeutics” (Stingray Therapeutics, Inc., priority 2018, dated 2021).

The target of test [1] is Recombinant Human ENPP-2/Autotaxin Protein (Homo sapiens (Human), UniProt Q13822). Description: ENPP2 Inhibition Assay. The test is classed as biochemical. As to the method:
Assay Buffer: 10 mM CaCl2, 5 mM MgCl2, 50 mM Tris, 0.02% Brij-35, pH 8.5. Substrate: 2 mM Bis(p-Nitrophenyl) Phosphate Sodium Salt (Sigma Cat # N3002). Enzyme: 0.2 ng/μL Recombinant Human ENPP-2/Autotaxin Protein (R&D Cat #5255-EN), PF-3080 in DMSO in 96-well clear assay plates
(§1) An eight point serial dilution of drugs was prepared in 10× in assay buffer with the final assay concentrations starting at 10 μM, 3 μM, 1 μM, 0.3 μM . . . 0 μM. A dilution of DMSO was included as a control. The assay plate was set up as follows with each well in duplicate: 15 μL assay buffer+10 μL ENPP1 inhibitor or DMSO+50 μL Substrate+25 μL Enzyme. Both the enzyme and substrate were added to opposite sides of the well to ensure that there was no interaction until all wells had both components. The plate was then centrifuged gently for 10 seconds, followed by an incubation at 37° C. for 45 minutes. The reaction was quantified by measuring absorbance at 405 nm using the Envision.
IC50 values are determined using GraphPad Prism 5 software. The data were entered as an X-Y plot into the software as percent inhibition for each concentration of the drug. The concentration values of the drug were log transformed and the nonlinear regression was carried out using the “sigmoidal dose-response (variable slope)” option within the GraphPad software to model the data and calculate IC50 values. The IC50 values reported are the concentration of drug at which 50% inhibition was reached.

Test [2] addresses T1, ENPP1 protein (Homo sapiens (Human), UniProt P22413). The experiment in a line: ENPP1 Thermal Shift Assay (Example 1). Type of test: binding. The note with it: Table 2, FIG. 7, 100 μM drug, 1.0 μg ENPP1.
Target sequence in this assay (P22413 whole entry, looked up, change not shown): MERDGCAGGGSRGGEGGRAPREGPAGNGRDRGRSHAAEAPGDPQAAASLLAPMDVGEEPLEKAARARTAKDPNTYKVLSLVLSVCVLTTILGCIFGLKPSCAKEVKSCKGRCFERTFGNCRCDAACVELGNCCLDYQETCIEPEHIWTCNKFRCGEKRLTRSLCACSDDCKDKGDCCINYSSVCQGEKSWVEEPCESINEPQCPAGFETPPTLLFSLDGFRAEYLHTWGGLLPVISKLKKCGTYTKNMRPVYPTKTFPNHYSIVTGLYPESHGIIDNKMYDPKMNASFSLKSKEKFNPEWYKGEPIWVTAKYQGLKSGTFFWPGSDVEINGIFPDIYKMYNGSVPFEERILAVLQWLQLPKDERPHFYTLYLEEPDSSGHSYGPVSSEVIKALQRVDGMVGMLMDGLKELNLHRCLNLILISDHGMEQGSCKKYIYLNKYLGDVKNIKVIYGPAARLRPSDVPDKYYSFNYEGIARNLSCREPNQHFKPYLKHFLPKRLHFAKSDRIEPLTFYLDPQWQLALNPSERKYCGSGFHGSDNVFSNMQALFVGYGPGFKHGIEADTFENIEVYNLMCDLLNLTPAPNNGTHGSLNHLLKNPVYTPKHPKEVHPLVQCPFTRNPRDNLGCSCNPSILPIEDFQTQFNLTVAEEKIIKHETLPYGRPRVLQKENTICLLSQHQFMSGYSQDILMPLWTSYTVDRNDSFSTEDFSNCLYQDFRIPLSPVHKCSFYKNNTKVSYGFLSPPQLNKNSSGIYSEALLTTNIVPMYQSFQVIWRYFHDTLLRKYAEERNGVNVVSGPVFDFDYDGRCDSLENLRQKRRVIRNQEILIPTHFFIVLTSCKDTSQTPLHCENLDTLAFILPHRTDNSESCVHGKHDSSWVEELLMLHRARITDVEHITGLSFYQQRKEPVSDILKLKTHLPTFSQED
The target of test [3] is T1, ENPP1 protein. The experiment in a line: ENPP1 enzymatic assay with TMP substrate (FIG. 8). The test is classed as biochemical. Conditions: 5.0 ng ENPP1, 150 μM TMP substrate. As to the method:
FIG. 8 depicts results of a similar experiment. 5.0 ng of ENPP1 protein exposed to increasing doses of inhibitor (compound 78 or compound 107-02) for 10 minutes in solution, followed by the addition of 150 μM of TMP substrate. The assay was then incubated for 20 minutes and then read at 405 nm on the envision plate reader.
Target sequence in this assay (P22413 whole entry, looked up): as the sequence (P22413 whole entry, looked up, change not shown) above

For test [4], the target named is Recombinant Human ENPP-1 Protein (purified in-house) (Homo sapiens (Human), UniProt P22413). Description: ENPP1 Assay (TMP), Example 2. The test is classed as biochemical. How it is done: Enzyme: 1 ng/μL Recombinant Human ENPP-1 Protein (purified in-house)—Assay Conc.: 5 ng/well of DMSO in 96-well clear assay plates.
Sequence of Recombinant Human ENPP-1 Protein (purified in-house) (P22413 whole entry, looked up): as the sequence (P22413 whole entry, looked up, change not shown) above
as §1, with “A ten” for “An eight”, “75” for “15”, “DMSO Dilutions+10” for “DMSO+50”, “Substrate+5” for “Substrate+25”, “Enzyme (5 ng).” for “Enzyme.”, “Envision Plate Reader.” for “Envision.”

Like-named read-outs stand apart in the source and are kept apart here.

Usually ΔTm stands for the change in melting temperature against a reference sample. As a reminder, the IC50 is the midpoint of a concentration-inhibition curve. For `COc1ccc(NC(=O)CSc2nc3c(C)c(C#N)ncc3[nH]2)cc1O` [Compound 78, 2-((6-Cyano-7-methyl-3H-imidazo[4,5-c]pyridin-2-yl)thio)-N-(3-hydroxy-4-methoxyphenyl) acetamide], in test [1], the “selective at inhibiting ENPP1 but not ENPP2” value was “selective”. Further, the “inhibiting the activity of ENPP2” value in test [1] (FIGS. 2A and 2B) was “ineffective”. The “Tm (° C.)” value on ENPP1 protein [2] (NT 60.05) is 61.16 °C. In addition, the shift in melting temperature (ΔTm) at 100 µM on ENPP1 protein [2] (read-out: ΔTm (° C.)) came to 1.11 °C. For the same molecule, on ENPP1 protein [3], the enzymatic activity result is listed as “significant decrease”. Moreover, the IC50 in test [4] (FIG. 5A, TMP substrate, read-out: IC50) worked out at 0.271 µM; in test [4] (Table 5, TMP substrate, read-out: ENPP1 (IC50 μM) TMP), 0.271 µM.
